Assay results from patent US8466113B2, “4-isopropylphenyl glucitol compounds as SGLT1 inhibitors” (Taisho Pharmaceutical Co., Ltd., priority 2009, dated 2013).

Tests used:
[1] = molecular target: T1, human SGLT2 protein modified to have LeuGluSerArgGlyProVal added to the carboxy-terminal final residue (Homo sapiens, UniProt P31639); test: Inhibition test for sodium-dependent sugar uptake in CHO-K1 cells stably expressing human SGLT2, Method A; type: cell-based; conditions: uptake 37° C., 60 minutes, read-out: IC50 for hSGLT2 Method A
T1 construct: expressed in transfected cells; host or cells: CHO-K1
T1 sequence (P31639 with tags, fused parts or gaps): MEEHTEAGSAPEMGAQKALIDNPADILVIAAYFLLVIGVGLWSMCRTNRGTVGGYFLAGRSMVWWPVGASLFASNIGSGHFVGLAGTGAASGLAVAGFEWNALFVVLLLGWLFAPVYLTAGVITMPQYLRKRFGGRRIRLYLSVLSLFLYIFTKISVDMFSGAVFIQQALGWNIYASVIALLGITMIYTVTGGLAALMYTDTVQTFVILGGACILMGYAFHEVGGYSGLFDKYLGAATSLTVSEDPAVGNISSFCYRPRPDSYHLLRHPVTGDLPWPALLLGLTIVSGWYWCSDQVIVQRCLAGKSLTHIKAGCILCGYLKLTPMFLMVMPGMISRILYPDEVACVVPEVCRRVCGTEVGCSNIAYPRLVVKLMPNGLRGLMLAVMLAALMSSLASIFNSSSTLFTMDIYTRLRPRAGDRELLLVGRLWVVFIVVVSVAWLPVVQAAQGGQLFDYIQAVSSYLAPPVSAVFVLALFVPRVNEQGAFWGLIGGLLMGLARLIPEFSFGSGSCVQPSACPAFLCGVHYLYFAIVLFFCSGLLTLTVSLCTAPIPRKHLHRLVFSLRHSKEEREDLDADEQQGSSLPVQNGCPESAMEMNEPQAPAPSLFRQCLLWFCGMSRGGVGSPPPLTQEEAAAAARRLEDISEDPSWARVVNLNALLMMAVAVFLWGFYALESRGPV
Experimental: (2) Creation of CHO-K1 Cells Stably Expressing Human SGLT2
Method A (described in WO2007/136116): A plasmid vector expressing human SGLT2 protein modified to have LeuGluSerArgGlyProVal added to the carboxy-terminal final residue was transfected into CHO-K1 cells using lipofectamine 2000 (Invitrogen). The cells were cultured in the presence of 500 μg/mL hygromycin B to select resistant strains, followed by screening in the system shown below using sugar uptake capacity as an indicator to obtain SGLT2-expressing cells.
(3) Inhibition Test for Sodium-Dependent Sugar Uptake in Stably Expressing Cells
The stably expressing cells prepared above were used in the following test.
Pretreatment buffer (140 mM choline chloride, 2 mM KCl, 1 mM CaCl2, 1 mM MgCl2, 10 mM HEPES/5 mM Tris, pH 7.4) was added in a volume of 200 μL to the cells stably expressing SGLT1 or 2 mL for Method A and 200 μL for Method B to the cells stably expressing SGLT2, followed by incubation for 20 minutes. The pretreatment buffer was removed and replaced by uptake buffer containing a test compound (1 mM methyl α-D-glucopyranoside (containing [^14C]methyl α-D-glucopyranoside), 140 mM NaCl, 2 mM KCl, 1 mM CaCl2, 1 mM MgCl2, 10 mM HEPES/5 mM Tris, pH 7.4) in a volume of 75 μL for SGLT1 and SGLT2 in Method B or 200 μL for SGLT2 in Method A. Uptake reaction was performed at 37° C. for 30 minutes (SGLT1) or 60 minutes (SGLT2). After the reaction, the cells were washed twice with washing buffer (10 mM methyl α-D-glucopyranoside, 140 mM choline chloride, 2 mM KCl, 1 mM CaCl2, 1 mM MgCl2, 10 mM HEPES/5 mM Tris, pH 7.4) in a volume of 200 μL for SGLT1 and SGLT2 in Method B or 2 mL for SGLT2 in Method A, and then dissolved in a 0.25 M NaOH solution (75 μL for SGLT1 and SGLT2 in Method B or 400 μL for SGLT2 in Method A). A liquid scintillator (Perkin Elmer) was added and mixed well with each sample, followed by measurement of radioactivity using a β-ray analyzer. For the control group, uptake buffer containing no test compound was prepared. Moreover, another uptake buffer containing choline chloride instead of NaCl was also prepared for basal uptake.
For determination of IC50 values, test compounds prepared at 6 appropriate concentrations were used and their concentrations required for 50% inhibition of the amount of sugar uptake (IC50 values) were calculated relative to the amount of sugar uptake in the control group (100%).

[2] = test system: streptozotocin (STZ)-induced diabetic rats; test: Oral glucose tolerance test (OGTT) in streptozotocin-induced diabetic model rats; type: in vivo, rat; conditions: oral 1 mg/kg, glucose 2 g/kg, versus vehicle control
Experimental: (1) Preparation of Diabetic Model Rats
SD/IGS rats at 7 weeks of age (male, Charles River Laboratories Japan Inc.) were fasted for about 16 hours and then injected with 50 mg/kg streptozotocin (STZ) via the tail vein under ether anesthesia to prepare diabetic model rats. Similarly, another group of SD/IGS rats at 7 weeks of age was injected with 1.25 mmol/L citric acid in physiological saline (1 mL/kg) via the tail vein under ether anesthesia to prepare normal control rats. At one week after injection of STZ or 1.25 mmol/L citric acid in physiological saline, the rats were provided for an oral glucose tolerance test.
(2) Oral Glucose Tolerance Test (OGTT)
After the diabetic model rats were fasted for about 16 hours, drug groups were each orally administered with a drug (1 mg/kg) dissolved in a 0.5% aqueous carboxymethylcellulose sodium (CMC) solution, while the control group was orally administered with a 0.5% aqueous CMC solution alone. The drugs used were compounds 10, 11 and 33 disclosed in WO07/136116, as well as compounds 1-2, 5-2, 6-2, 13-2 and 15-2 according to the present invention. Immediately after drug administration, a glucose solution (2 g/kg) was orally administered and blood was collected at 6 points in total: before drug administration (0 hour) and 0.25, 0.5, 1, 1.5 and 2 hours after oral administration.
Blood was collected from the tail vein of each rat without anesthesia using a heparin-coated blood collection tube, and centrifuged to separate plasma. Plasma glucose concentrations were quantified by measurement with a Glucose CII-Test Wako (Wako Pure Chemical Industries, Ltd., Japan). To determine the intensity of hypoglycemic effect, the blood glucose level before drug administration was subtracted from each blood glucose level measured until one hour after oral administration in each drug group, and the resulting values were analyzed by the trapezoidal method to calculate an increment in the area under the curve for glucose (ΔAUC), which was expressed as a decrease relative to ΔAUC of the control group.

IC50 [1] [nM]	SMILES	STZ rats OGTT % inhibition ΔAUC0-1 h (mg/dl) @1 mg/kg/po [2] [%]
14800	COc1cc(C(C)C)c(Cc2ccc(/C=C/C(C)(C)C(=O)NC(C)(C)C(=O)NCC(C)(C)N)cc2C)cc1[C@@H]1O[C@H](CO)[C@@H](O)[C@H](O)[C@H]1O [Example 13-2]	54
2690	Cc1cc(/C=C/C(C)(C)C(=O)NC(C)(C)C(=O)NCCN(C)C)ccc1Cc1cc([C@@H]2O[C@H](CO)[C@@H](O)[C@H](O)[C@H]2O)c(O)cc1C(C)C [Example 1-2]	74
3110	Cc1cc(/C=C/C(C)(C)C(=O)NC(C)(C)C(=O)NCC(C)(C)N)ccc1Cc1cc([C@@H]2O[C@H](CO)[C@@H](O)[C@H](O)[C@H]2O)c(O)cc1C(C)C [Example 6-2]	64
1280	COc1cc(C(C)C)c(Cc2ccc(/C=C/C(C)(C)C(=O)NC(C)(C)C(=O)NCCN(C)C)cc2)cc1[C@@H]1O[C@H](CO)[C@@H](O)[C@H](O)[C@H]1O [Example 15-2]	62
802	Cc1cc(/C=C/C(C)(C)C(=O)NC(C)(C)C(=O)N2CCC(N(C)C)CC2)ccc1Cc1cc([C@@H]2O[C@H](CO)[C@@H](O)[C@H](O)[C@H]2O)c(O)cc1C(C)C [Example 5-2]	66
